Assay results reported in patent US9926506B2, “Tetrarylmethane ethers as fuel markers” (Dow Global Technologies LLC, priority 2014, dated 2018).

| melting point [°C] | Structure (SMILES) |
| --- | --- |
| 103 to 105 | CCCCCCCOc1ccc(C(c2ccccc2)(c2ccccc2)c2ccc(OCCCCCCC)cc2)cc1 [BHeptTPM, Bis(4-(heptyloxy)phenyl)diphenylmethane] |
| 110 to 113 | CCCCCOc1ccc(C(c2ccccc2)(c2ccccc2)c2ccc(OCCCCC)cc2)cc1 [BPentTPM, Bis(4-(pentyloxy)phenyl)diphenylmethane] |
| 84.5 to 86.5 | CCCCCCCCOc1ccc(C(c2ccccc2)(c2ccccc2)c2ccc(OCCCCCCCC)cc2)cc1 [BOctTPM, Bis(4-(octyloxy)phenyl)diphenylmethane] |
| 120 to 122 | CCCCCCOc1ccc(C(c2ccccc2)(c2ccccc2)c2ccc(OCCCCCC)cc2)cc1 [BHexTPM] |
